# Laboratory results taken from patent publication US11390617B2, “Methods of treating non-Hodgkin lymphoma using 2-(2,6-dioxopiperidin-3-yl)-4-((2-fluoro-4-((3-morpholinoazetidin-1-yl)methyl)benzyl)amino)isoindoline-1,3-dione” (Celgene Corporation, priority 2019, dated 2022).
# Assays:
# [1] = tested on: WSU-DLCL2 DLBCL xenograft tumors; experiment: WSU-DLCL2 (DLBCL) xenograft model; type: in vivo, female SCID mice; details: 5 days on 2 days off for 3 weeks, single agent
# Protocol: Female 6- to 8-weeks-old CB17 SCID mice were obtained from Charles River Laboratories. Mice were housed in a barrier facility in micro-isolator cages at 10 animals per cage. Mice were fed with Harlan-Teklad LM-485 Mouse/Rat Sterilizable Diet and autoclaved water ad libitum and maintained on a 12 hours light-dark cycle. Animals were acclimatized to the animal housing facility for a period of 7 days before the beginning of the experiment. All animal studies were performed under protocols approved by Institutional Animal Care and Use Committees.
# Suspensions of Compound 1 were pared in aqueous 0.5% Methyl Cellulose, 0.25% Tween 80 and 50 mM Citrate pH 3. The formulations were homogenized using a Teflon pestle and mortar (Potter-Elvehjem tissue grinder). For multiday studies, the compound was freshly formulated every day. Compound 1 and vehicle were administered by oral gavage. Rituximab was diluted in 0.9% saline and administered intraperitoneally.
# Tumor cells were injected subcutaneously in the flank region above the right hind legs of female CB17 SCID mice. When the tumor volumes reach to approximately 200 mm^3, mice bearing tumors of 150-300 mm^3 were randomly assigned to receive oral doses of vehicle, Compound 1, rituximab or combination of Compound 1 (5 days on and 2 days off for 3 weeks) and rituximab (twice a week) for the duration of the study. Tumor volumes were determined before the initiation of treatment and were considered as the starting volumes. Tumors were measured twice a week for the duration of the study. The long and short axes of each tumor were measured using a digital caliper in millimeters. The tumor volumes were calculated using the formula: width^2×length/2. The tumor volumes were expressed in cubic millimeters (mm^3).
# Xenograft data are expressed as mean±SEM. Statistical analyses were performed using GraphPad Prism. […]
# Xenograft study was conducted with female SCID mice bearing WSU-DLCL2 DLBCL xenograft tumors. […] Tumors were measured twice a week using calipers and tumor volumes were calculated using the formula of W^2×L/2. […]
# [2] = tested on: SUDHL4 Parental; experiment: Viability/apoptosis flow cytometry assay, DLBCL cell lines with acquired resistance to doxorubicin and parental lines; type: cell-based
# Protocol: The following exemplary anti-proliferative assay uses exemplary DLBCL cell lines with acquired resistance to doxorubicin (Table 7). The in vitro growth inhibitory activity of Compound described herein was evaluated using a 384-well flow cytometry assay. The activity of Compound 1 was also evaluated in cell lines with acquired resistance to doxorubicin (one of the curative agents in the DLBCL standard of care regimen R-CHOP [rituximab, cyclophosphamide, doxorubicin, vincristine, and prednisone]) (Table 7).
# The cell lines in Table 7 were plated in 96-well flat bottom plates and assessed with increasing concentrations of compound ranging from 0.0015 to 10 μM or dimethyl sulfoxide (DMSO) control. The final concentration of DMSO was 0.1% (v/v). Following the addition of Compound 1 or DMSO and incubation for 120 hours, cell number and cell death were analyzed by flow cytometry (Attune®, Thermo Fisher) using Annexin V and the vital dye, 7-AAD. Phosphatidylserine translocates from the inner layer to the outer layer of the cell membrane early in apoptosis and Annexin V binds to the exposed phosphatidylserine found on the surface of an apoptotic cell. The dye 7-AAD is excluded by intact live cells and only stains cells that have died as a result of apoptosis or necrosis.
# Flow cytometry data analysis was then performed using the Flow Jo_v10 software to determine the number of viable cells (Annexin V and 7-AAD double negative staining cells) and percentage of apoptotic cells (Annexin V positive cells) for each condition. The live cell count for every concentration was normalized to the DMSO control (considered as 100%) to calculate the percentage of viable cells remaining after treatment and graphed using GraphPad Prism 7.03. The IC50 (50% inhibitory concentration) and Emax (maximum efficacy eliminating tumor cells achieved) values were then calculated by performing nonlinear regression curve fitting using log(inhibitor) vs. normalized response—variable slope analysis on GraphPad Prism 7.03. Area under the curve (AUC) was calculated by performing area under curve analysis on GraphPad Prism 7.03. Similarly, for apoptosis analysis, the percentage of apoptosis combining both “early” (Annexin V positive and 7-AAD negative) and “late” apoptosis (Annexin V and 7-AAD positive) cell gates relative to DMSO was graphed using GraphPad Prism 7.03. The AUC, EC50 (concentration of Compound 1 that produces half-maximal apoptosis response) and Ymax (maximal percentage of apoptosis achieved) values from apoptosis curves were calculated by performing area under curve analysis and nonlinear regression curve fitting using log(agonist) vs. normalized response—Variable slope analysis on GraphPad Prism 7.03.
# In Table 8, dose-response proliferation curves for the cell lines with acquired resistance to doxorubicin and non-linear curve-fit regression were used to determine IC50, AUC, and Emax for % viable cells (Emax for viability varies between 100 at low doses and 0 at high doses, which corresponds to inhibition of all viable cells), and dose-response apoptosis curves were used to determine the EC50, AUC, and Ymax for % apoptosis (Ymax for apoptosis varies from 0 at low doses and 100 at higher doses which corresponds to death of all cells). Tumor cells were exposed to serial dilutions (0.00015 to 10 μM) of Compound 1 or dimethyl sulfoxide (DMSO) control for 5 days. Viability and apoptosis for all cell lines was determined by Annexin V/7-aminoactinomycin D (7-AAD) flow cytometry.
structure (smiles),measurement,setting,value
"O=C1CC[C@H](N2C(=O)c3cccc(NCc4ccc(CN5CC(N6CCOCC6)C5)cc4F)c3C2=O)C(=O)N1 [Compound 1, (S)-2-(2,6-dioxopiperidin-3-yl)-4-((2-fluoro-4-((3-morpholinoazetidin-1-yl)methyl)benzyl)amino)isoindoline-1,3-dione]",tumor volume reduction,[1]; Compound 1 1 mg/kg oral,74%
same,tumor volume reduction,[1]; Compound 1 3 mg/kg oral,86%
same,AUC (% Viable Cells),[2]; 120 hours,335
same,AUC (Apoptosis),[2]; 120 hours,6
same,Emax (% Viable Cells),[2]; 120 hours,75%
same,Ymax (Apoptosis),[2]; 120 hours,3.7%
same,EC50,"[2]; Homo sapiens, SU-DHL-4, 120 hours",200 nM
